Test results as given in patent US20240228497A1, “Pyrrolo[2, 3-b]Pyrazine-Based Bifunctional Compounds as HPK1 Degraders and the Use Thereof” (BeiGene, Ltd., priority 2021, published 2024).

What was measured:
[1] = test system: pSLP76 (S376) level in Jurkat cell line; assay: Cellular pSLP76(S376) HTRF Assay in Jurkat cells; format: cell-based; conditions: 2 h compound treatment, stimulated with 0.05 μg/mL anti-human CD3 (OKT3) for 30 min
Experimental: Cellular pSLP76(S376) HTRF Assay
Jurkat cell line was used in this study. Cells were maintained in RPMI 1640 supplemented with heat-inactivated 10% fetal bovine serum (Thermo Fisher), 50 units/mL penicillin and streptomycin (Thermo Fisher) and kept at 37° C. in a humidified atmosphere of 5% CO2 in air. Cells were reinstated from frozen stocks that were laid down within 30 passages from the original cells purchased. After cell starvation in the assay buffer (RPMI 1640 supplemented with heat-inactivated 0.1% fetal bovine serum) for 18 hours, cells were seeded into a round bottom 96-well plate at 150,000 cells per well density. Cells were treated with a 9-point dilution series of test compounds. The final compound concentration is from 0 to 2 μM. After 2 h compound treatment, cells were stimulated with 0.05 μg/mL anti-human CD3 (OKT3, Bioxcell) for 30 min at 37° C. Then the cells were lysed, and the pSLP76 (S376) level in the cell lysates was detected by HTRF kit (Cisbio). A total of 16 μL of cell lysate from each well of a 96-well plate was transferred to a 384-well small volume white assay plate. Lysate from each well was incubated with 2 μL of Eu^3+-cryptate (donor) labeled anti-phospho-SLP76 and 2 μL of D2 (acceptor) labeled anti-phospho-SLP76 antibodies (Cisbio) overnight in dark at room temperature. FRET signals (655 nm) were measured using a PHERAstar FSX reader (BMG Labtech). IC50 determination was performed by fitting the curve of percent inhibition versus the log of the inhibitor concentration using Dotmatics.

[2] = target: T1, HPK1 kinase (aa1-346, Life Technologies) (Homo sapiens, UniProt Q92918); assay: HPK Kinase Activity Assay at 1 mM ATP (TR-FRET); format: biochemical; conditions: HPK1 kinase 40 nM, 0.5 μM STK1 substrate, 60 min preincubation, read-out: Enzymatic activity IC50
T1 construct: HPK1 kinase (aa1-346, Life Technologies); purchased Life Technologies
T1 sequence (Q92918 1-346): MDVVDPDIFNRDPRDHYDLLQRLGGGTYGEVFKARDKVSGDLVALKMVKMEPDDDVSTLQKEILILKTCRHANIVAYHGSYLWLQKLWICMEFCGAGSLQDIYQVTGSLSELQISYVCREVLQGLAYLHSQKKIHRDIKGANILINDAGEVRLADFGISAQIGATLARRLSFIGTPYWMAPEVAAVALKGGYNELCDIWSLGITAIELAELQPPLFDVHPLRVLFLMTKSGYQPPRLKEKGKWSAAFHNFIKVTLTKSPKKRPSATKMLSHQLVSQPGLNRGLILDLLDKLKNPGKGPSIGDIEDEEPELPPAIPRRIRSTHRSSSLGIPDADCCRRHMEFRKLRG
Experimental: HPK Kinase Activity Assay at 1 mM ATP
Compounds disclosed herein were tested for inhibition of HPK1 kinase (aa1-346, Life Technologies) activity in assays based on the time-resolved fluorescence-resonance energy transfer (TR-FRET) methodology. The assays were carried out in 384-well low volume black plates in a reaction mixture containing HPK1 kinase (40 nM), 1 mM ATP, 0.5 μM STK1 substrate and 0-10 μM compound in buffer containing 50 mM HEPES, 0.01% BSA, 0.1 mM Orthovanadate, 10 mM MgCl2, 1 mM DTT, pH=7.0, 0.005% Tween-20. The kinase was incubated with the compounds disclosed herein or DMSO for 60 minutes at room temperature and the reaction was initiated by the addition of ATP and STK1 substrate. After reaction at room temperature for 120 minutes, an equal volume of stop/detection solution was added according to the manufacture's instruction (CisBio). The stop/detection solution contained STK Antibody—Cryptate and XL665-conjugated streptavidin in Detection Buffer. The TR-FRET signals (ratio of fluorescence emission at 665 nm over emission at 620 nm with excitation at 337 nm wavelength) were recorded on a PHERAstar FS plate reader (BMG Labtech). Phosphorylation of STK1 substrate led to the binding of STK Antibody—Cryptate to the biotinylated STK1 substrate, which places fluorescent donor (Eu^3+ crypate) in close proximity to the accepter (Streptavidin-XL665), thus resulting in a high degree of fluorescence resonance energy transfer. The inhibition of HPK1 in presence of increasing concentrations of compounds was calculated based on the ratio of fluorescence at 665 nm to that at 620 nm. IC50 determination was performed by fitting the curve of percent inhibition versus the log of the inhibitor concentration using Dotmatics.

HPK1 protein = target: T2, HPK1 protein (Homo sapiens, UniProt Q92918); assay: HPK1 Protein Degradation Assay in Human PBMC (Western Blot); format: cell-based; conditions: 24 h compound incubation
T2 construct: host or cells: human PBMC (CD4+ and CD8+ T cells gated in the FACS assay)
Experimental: HPK1 Protein Degradation Assay in Human PBMC (Western Blot)
Human PBMCs (AllCells) was used in this study. Cells were thawed one day in advance and maintained in RPMI-1640 supplemented 10% fetal bovine serum (Thermo Fisher), 50 units/mL penicillin and streptomycin (Thermo Fisher) and the mixture was kept at 37° C. in a humidified atmosphere air containing 5% CO2. 3×10^6 PBMCs per well in 1 mL culture medium were seeded in the 12-well plate, and the cells were treated with an appropriate dilution series of compounds with a final concentration up to […]. After 24 h of compound incubation, the medium was aspirated, the cells were washed with PBS, and then 30 μL of 1X protein lysis buffer (Cell Signaling Technology) containing protease inhibitors (Merck) and phosphatase inhibitors (Sigma) was added. The cells were lysed. After centrifugation, the supernatants were quantified by BCA protein assay kit (Thermo Fisher). 4X loading Buffer (Thermo Fisher) was added to equal amounts of total protein from each sample and heated at 95° C. for 5 minutes. 30-50 μg of cell lysate was loaded onto a 4%-12% NuPAGE Bis-Tris Gel (Thermo Fisher) and electro-transferred to NC membranes (Thermo Fisher). The membranes were blocked for least 1 hour with blocking reagent (LI-COR), and then incubated overnight with anti-HPK1 (Cell Signaling Technology, 4472S) antibodies and as loading control anti-ß-actin (Cell Signaling Technology, 3700S) or anti-GAPDH (Cell Signaling Technology, 97166S) at 4° C. with gentle shaking. The membranes were washed three times with TBST, and incubated at least 1 hour at room temperature with anti-mouse or anti-rabbit secondary fluorescent antibody (Thermo Fisher, A32729; LI—COR, 926-32213). Then the membranes were washed three times in TBST, and one time in water. Immunoreactive bands were visualized by Odyssey CLx and analyzed by GraphPad Prism 8.

T2 sequence (Q92918 whole entry): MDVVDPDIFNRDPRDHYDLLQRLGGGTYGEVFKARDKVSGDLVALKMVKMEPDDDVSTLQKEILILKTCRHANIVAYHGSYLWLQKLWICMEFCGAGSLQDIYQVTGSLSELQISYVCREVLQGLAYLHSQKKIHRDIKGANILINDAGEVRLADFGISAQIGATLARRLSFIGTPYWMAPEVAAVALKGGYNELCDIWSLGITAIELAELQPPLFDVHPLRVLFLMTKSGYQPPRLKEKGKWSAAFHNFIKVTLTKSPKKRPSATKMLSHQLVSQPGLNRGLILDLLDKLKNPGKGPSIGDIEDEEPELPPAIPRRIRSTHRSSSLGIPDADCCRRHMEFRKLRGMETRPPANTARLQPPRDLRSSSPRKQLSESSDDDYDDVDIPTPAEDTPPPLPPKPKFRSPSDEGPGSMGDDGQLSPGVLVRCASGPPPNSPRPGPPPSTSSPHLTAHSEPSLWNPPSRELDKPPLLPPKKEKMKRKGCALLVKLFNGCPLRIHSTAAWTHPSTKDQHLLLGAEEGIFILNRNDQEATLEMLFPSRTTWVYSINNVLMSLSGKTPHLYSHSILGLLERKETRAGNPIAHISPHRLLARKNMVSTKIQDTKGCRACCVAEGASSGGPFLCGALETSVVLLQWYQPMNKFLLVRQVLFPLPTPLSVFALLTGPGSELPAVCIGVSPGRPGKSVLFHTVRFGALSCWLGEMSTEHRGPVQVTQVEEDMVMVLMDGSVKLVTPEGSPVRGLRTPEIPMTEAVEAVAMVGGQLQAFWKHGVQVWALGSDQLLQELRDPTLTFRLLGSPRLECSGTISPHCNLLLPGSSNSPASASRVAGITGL

Compound | IC50 [1] [nM] | IC50 [2] [nM] | DC50 (HPK1 protein) [nM] | Dmax (HPK1 protein) [%] | Protein degradation DC90 (HPK1 protein) [nM]
Cc1cc(-c2c[nH]c3ncc(-c4cc(C)c5c(c4)CCN(CCC(=O)NCC4CCN(c6ccc(C7CCC(=O)NC7=O)cc6)CC4)C5)nc23)ccc1C(=O)N(C)C (stereo not drawn) [Example 2, 4-(2-(2-(3-(((1-(4-(2,6-dioxopiperidin-3-yl)phenyl)piperidin-4-yl)methyl)amino)-3-oxopropyl)-8-methyl-1,2,3,4-tetrahydroisoquinolin-6-yl)-5H-pyrrolo[2,3-b]pyrazin-7-yl)-N,N,2-trimethylbenzamide] | 515 | 253 | 87 | 91 | 294
Cc1cc(-c2c[nH]c3ncc(-c4cc(C)c5c(c4)CCN(CCC(=O)N4CCN(c6ccc(N7CCC(=O)NC7=O)cc6)CC4)C5)nc23)ccc1C(=O)N(C)C [Example 3, 4-(2-(2-(3-(4-(4-(2,4-dioxotetrahydropyrimidin-1(2H)-yl)phenyl)piperazin-1-yl)-3-oxopropyl)-8-methyl-1,2,3,4-tetrahydroisoquinolin-6-yl)-5H-pyrrolo[2,3-b]pyrazin-7-yl)-N,N,2-trimethylbenzamide] | 193 | 61 | 23 | 97 | 215
Cc1cc(-c2c[nH]c3ncc(-c4cc(C)c5c(c4)CCN(CCC(=O)NC4CCN(c6ccc(N7CCC(=O)NC7=O)cc6)CC4)C5)nc23)ccc1C(=O)N(C)C [Example 4, 4-(2-(2-(3-((1-(4-(2,4-dioxotetrahydropyrimidin-1(2H)-yl)phenyl)piperidin-4-yl)amino)-3-oxopropyl)-8-methyl-1,2,3,4-tetrahydroisoquinolin-6-yl)-5H-pyrrolo[2,3-b]pyrazin-7-yl)-N,N,2-trimethylbenzamide] | 459 | 140 | 59 | 95 | 817
